Usually Kd stands for the free concentration of one partner at which half of the binding sites on the other are occupied at equilibrium, for simple one-to-one binding. Higher therefore signals a looser complex.

For one compound, Kd results are on record in publication PMC4760428 (Angewandte Chemie (International Ed. in English), 2016).

The target in the test is WT cyclophilin (Homo sapiens, UniProt P62937). Briefly: FRET equilibrium binding to wild-type cyclophilin.

Structures are written as SMILES. Peptide text beside a SMILES is read from it.

WT cyclophilin, sequence (P62937 whole entry): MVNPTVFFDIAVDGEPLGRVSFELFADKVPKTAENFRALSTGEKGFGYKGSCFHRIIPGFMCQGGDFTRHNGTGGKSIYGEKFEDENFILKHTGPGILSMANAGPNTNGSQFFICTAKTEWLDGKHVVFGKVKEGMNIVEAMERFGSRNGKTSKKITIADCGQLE

`C[C@H](NS(=O)(=O)c1cccc2c(N(C)C)cccc12)C(=O)N[C@@H](C)C(=O)N1CCC[C@H]1C(=O)N[C@@H](Cc1ccccc1)C(=O)O` [WT peptide] (HELM PEPTIDE1{[CN(C)c1cccc2c(S(=O)(=O)[*:2])cccc12].A.A.P.F}$$$$V2.0) registered a dissociation constant (Kd) of 164 ± 32 µM.
